The results in this text go back to patent publication US20240335431A1, “1-H-PYRROLO[2,3-c]PYRIDINE COMPOUNDS” (Acerta Pharma B.V., priority 2023, published 2024).

The structures appear in SMILES notation. Where two headings read alike, the source gives them in different places. Where only a bound is given, the exact number is not on record here.

By IC50 is commonly meant the concentration that inhibits the measured activity by half. The term Papp A→B denotes the apparent permeability from the apical to the basolateral side of a cell layer. What is called microsomal CLint is the capacity of the preparation to metabolise the compound, expressed as a volume cleared per time.

One data set relates to MOLM-13 cells. In words: Proliferation assay, MOLM-13 (CellTiter-Glo, 7 days). In kind it is cell-based, human. How it is done:
(§1) The anti-proliferative effect of compounds was tested in human leukaemia cell lines. The cell lines […] and MV4; 11 each harbor an MLL translocation expressing the MLL fusion proteins MLL-AF9 and MLL-AF4, respectively. Each also express the wildtype protein from the second allele. OCI-AML3 cells carrying the NPM1c gene mutation were also tested.
(§2) MOLM-13 and HEL cells were cultured in RPMI 1640 (Gibco) supplemented with 10% FBS (Gibco) and 1% Pen/Strep (Gibco). MV4; 11 cells were cultured in IMDM (Gibco) supplemented with 10% FBS (Gibco) and 1% Pen/Strep (Gibco). OCI-AML3 cells were cultured in MEMa (Gibco) supplemented with 20% FBS (Gibco) and 1% Pen/Strep (Gibco).
(§3) To assess proliferative effects, 125 MOLM-13 cells, 300 MV4; 11 cells, 75 OCI-AML3 cells, and 200 HEL cells were seeded in 40 μL media per well in 384-well ViewPlates (Perkin Elmer, 6007480). Cell seeding numbers were chosen based on growth curves to ensure linear growth throughout the experiments. Test compounds were added at 3.16-fold serial dilutions in DMSO from […] and DMSO content was normalized to 0.1%. Cells were incubated for 7 days at 37° C. and 5% CO2. A day 0 plate was seeded for each cell line and used as a standard control.
(§4) To measure cell viability, CellTiter-Glo 2.0 (Promega, G9242) luminescent growth indicator was used. 10 μL CellTiter-Glo reagent was added per well. Plates were placed on a plate shaker for 2 minutes in the dark and left to incubate off the shaker for another 8 minutes in the dark, for a total of 10 minutes. Plates were read using an EnVision plate reader (Perkin Elmer) using the Luminescence aperture and a measurement time of 0.1 second.
(§5) Data were analyzed in Genedata Screener®. IC50 values were determined by plotting % inhibition versus log compound concentration and using a one site dose response model. Raw data signals were normalized using 0.1% DMSO media only as background control, 0.1% DMSO with cells no compound as 100% viability (maximum signal), and day 0 0.1% DM with cells no compound as 0% viability (minimum signal).
(In general: Cellular ATP, detected with luciferase, serves as a proxy for viable cell number.)

The test system of the next data set is HEL cells. The data set is described as follows: Proliferation assay, HEL control cell line (CellTiter-Glo, 7 days). In kind it is cell-based, human. The conditions noted are these: Homo sapiens, HEL, 168 h. How it is done:
as §1, §2, §3, §4, §5

For data set [1], the target named is T1, hERG (Homo sapiens (Human), UniProt Q12809). In words: hERG assay 2, QPatch II 48X, room temperature. In kind it is cell-based. The conditions noted are these: hERG DUO cell line, top 200 μM. How it is done:
Experiments were performed on the QPatch II 48X (Sophion Biosciences) high throughput patch clamp platform at room temperature and used single hole Qplates. hERG DUO cell line (BSys) was used. The internal patch clamp solution was KF 60 mM, KCl 70 mM, HEPES 10 mM, EGTA 10 mM, and 5 mM Mg ATP (pH7.2). After sealing and whole cell access was gained the external solution (NaCl 140 mM, KCl 4 mM, HEPES 10 mM, CaCl2 2 mM, MgCl2 1 mM, glucose 5 mM (pH 7.4) was applied twice to establish stable baseline currents. An industry standard +40/−40 mV voltage protocol was applied every 15 seconds. All compounds were tested in a 6-point cumulative assay (final DMSO concentration 0.4-2% depending on stock concentration of compounds). Compounds were dispensed from initial 10 mM or 50 mM DMSO stocks after which DMSO dilutions were undertaken with a top concentration of 200 μM tested. Solvent controls were run in all experiments in line with the DMSO % required. Only wells that passed acceptance criteria for this platform were used in this analysis (500 MegaOhm seal resistance and current size >0.2 nA). Analysis was completed in Prism Graphpad to complete a composite IC50, by plotting % inhibition versus log compound concentration and using a log(inhibitor) vs. response—Variable slope.

A short description of data set [2]: Human liver microsomes (HLMs) intrinsic clearance assay. In kind it is in vitro ADME. The procedure:
Human liver microsomes (HLMs) were obtained from Corning (UltraPool 150 donors) at a concentration of 20 mg/mL protein. HLMs were stored at −80° C. until use and prior to use, thawed in a 37° C. water bath and then stored on wet ice. DMSO and NADPH were sourced from Solarbio S&T Co Ltd.
2 mL of 10 mM DMSO stock solutions of test compound were added to 198 mL acetonitrile to produce […] concentration. 1325 mL of 20 mg/mL HLM were added to 22260 mL of phosphate buffer to produce the HLM mixture. An 8.334 mg/mL solution of NADPH was prepared in 100 mmol/L pH 7.4 phosphate buffer.
222.5 mL of the HLM mixture and 25 mL of the 10 mM NADPH were added into the incubation plates (1 mL 96 well deep well plate from Thermo). The mixture was vortexed for 10 seconds at 1000 rpm. The incubation plate was pre-warmed in a water bath at 37° C. for 8 minutes. 2.5 mL of the […] stocks of test compound was added to initiate the reaction. The mix was vortexed for 12 seconds at 1000 rpm and incubated at 37° C. The incubation mixture (250 mL) contained 1 mg/mL HLM, 1 mmol/L NADPH and […].
The reaction was quenched by transferring 20 mL of the incubation mixture at 0.5, 5, 10, 15, 20 and 30 minutes into the quenching plate containing 100 mL of cold stop solution (acetonitrile containing internal standards). The plate was vortexed at 800 rpm for 2 minutes.
The quenching plates were centrifuged for 20 minutes at 4000 rpm and 4° C. 40 mL of the supernatant was transferred into a 96-well analysis plate containing 160 mL of water. The analysis plate was shaken at 1000 rpm for 2 minutes and the samples analysed by LC-MS/MS.
Peak areas were determined from extracted ion chromatograms. Percent parent remaining was calculated from peak area of test compound. The slope value, k, was determined by linear regression of the natural logarithm of percent parent remaining versus incubation time. The in vitro half-life (t1/2) was determined from the slope value by the equation: […]
Conversion of the in vitro half-life (min) into in vitro CLint (mL/min/mg proteins) was completed using the equation: […]
For orientation: Liver microsomes are vesicles of endoplasmic reticulum, rich in cytochrome P450 enzymes.

The subject of another data set is MV4;11 cells. In words: Proliferation assay, MV4;11 (CellTiter-Glo, 7 days). In kind it is cell-based, human. The note with it: read-out: MV-4-11 IC50. The procedure:
as §1, §2, §3, §4, §5

Data set [3] has as its target T1, hERG. The data set is described as follows: hERG assay 1 (standard), SyncroPatch 384PE. In kind it is cell-based. The note with it: CHO cells, room temperature, up to 40 uM. The procedure: Experiments were performed on the SyncroPatch 384PE (Nanion Technologies) high throughput patch clamp platform at room temperature and used medium resistance chips with 4 patch holes per site. hERG-expressing Chinese hamster ovary K1 (CHO) cell line was used in assay-ready format and kept in liquid nitrogen until use. 2 vials of cells (10×10^6 cells per vial) were thawed and added to 20 ml Hepes-buffered saline solution (HBSS). HBSS comprised 140 mM NaCl, 4 mM KCl, 10 mM HEPES and 5 mM Glucose (pH 7.4). The internal patch clamp solution was KF 120 mM, KCl 20 mM, HEPES 10 mM, EGTA 10 mM, and 25 μM Escin (pH 7.2). After the initial sealing process was complete, a seal enhancer solution comprising HBSS supplemented with 10 mM CaCl2 and 1 mM MgCl2 was applied to cells. The external solution was then exchanged (4 times) for external patch clamp solution comprising NaCl 80 mM, KCl 4 mM, HEPES 10 mM, CaCl2 2 mM, MgCl2 1 mM, glucose 5 mM, and NMDG 60 mM (pH7.4). All compounds were dispensed from initial 10 mM DMSO stocks. An industry standard +60/−40 mV voltage protocol was applied every 15 seconds. Compounds were tested in a 6-point cumulative assay (final DMSO concentration 0.33%), with a concentration range of 139 nM to 40 uM. Data were analyzed in Genedata Screener®. IC50 values were determined by plotting % inhibition versus log compound concentration and using a one site dose response model. Only wells that passed acceptance criteria for this platform were used in this analysis (30 MegaOhm seal resistance, Z prime >0.4 and current size >0.2 nA).
A general note: Block of hERG is tested as a sign of cardiac risk.

Data set [4] is described as follows: Caco-2 cell monolayers intrinsic permeation assay in the presence of efflux inhibitors. In kind it is in vitro ADME. The conditions noted are these: Caco-2, with efflux inhibitors. From the text:
Caco-2 cells were obtained from American Type Culture Collection (ATCC). HEPES, penicillin, streptomycin, bovine serum albumin (BSA) were obtained from Beijing Xinjingke Biotechnology Co, Ltd. Fetal bovine serum, Hank's balanced salt solution (HBSS) and non-essential amino acids (NEAA) were purchased from Gibco. Dulbecco's Modified Eagle's Medium (DMEM) was purchased from Corning and MES from Sigma. HTS Transwell-24 permeable supports were purchased from Corning. Zosuquidar and Ko-143 were obtained from MedChemExpress and Benzbromarone from Sigma.
The Caco-2 cell culture medium consisted of DMEM with high glucose and L-glutamine supplemented with 10% FBS, 0.1 mg/mL streptomycin, 100 units of penicillin, 0.6 mg/mL kanamycin sulfate and 1×NEAA. […] culture medium was added to each Transwell insert with 800 mL added to each well of the reservoir. After incubation at 37° C. in 5% CO2 for 1 hour, the plates were ready for seeding.
The cells were cultivated in T-75 flasks at 37° C., 5% CO2, 95% relative humidity. At 80 to 90% confluence, cells were treated with trypsin/EDTA treatment until they became detached. The trypsin/EDTA was inactivated by adding excess serum containing medium. The cell suspension was centrifuged at 120 g for 10 minutes followed by resuspension of the cell pellet in seeding medium at a cell density of 7.92×10^5 cells/mL.
[…] of the resulting cell suspension was added to each well of the Transwell plate and incubated for 14 to 18 days, with medium replaced every other day. After incubation for 14 to 18 days, the cells should have reached confluence and should be tested for electrical resistance using a Millicel Epithelial Volt-Ohm measuring system (Millipore).
The cell monolayers were washed twice with pre-warmed HBSS and incubated at 37° C. for 30 minutes under gentle shaking (480 rpm).
The compound under test was presented as a 10 mM DMSO stock solution. 2 mL of the 10 mM stock was added to 8 mL DMSO to produce a 2 mM stock. 2 mL was added to 398 mL of HBSS containing 10 mM Zosuquidar, 30 mM Benzbromarone and 2 mM KO-143 to make a […] solution.
210 mL of the test compound solution was added to the apical compartment of the Transwell plate, with a 10 mL sample taken to act as the time 0 sample. The wells of the receiver (basolateral) compartment were filled with 800 mL HBSS (containing the efflux inhibitors). The plates were incubated at 37° C. with shaking at 480 rpm for 120 minutes with sampling at 45 and 120 minutes.
At each sampling time (0, 45 and 120 minutes) 10 mL was removed from the apical compartment and add to 90 mL (HBSS containing the efflux inhibitors). 100 mL was removed from each basolateral compartment. 3 volumes of cold acetonitrile containing internal standard was added to each sample and vortex mixed for 10 minutes at 100 rpm. Samples were then centrifuged at 400 rpm for 20 minutes. 50 mL of the supernatant was taken for LC/MS/MS analysis to determine compound concentration.
The apparent permeability (Papp), in units of centimetre per second, were calculated for Caco-2 drug transport using the following equation: […]
Where CR is the concentration of compound in the receiver side at the respective time point, CD is the concentration of compound in the donor side at the respective timepoint. Area is the surface area of the membrane and time is 4500 seconds (75×60 seconds).

The next data set deals with OCI-AML3 cells. The data set is described as follows: Proliferation assay, OCI-AML3 (CellTiter-Glo, 7 days). In kind it is cell-based, human. The note with it: Homo sapiens, OCI-AML-3, 168 h. How it is done: as §1, §2, §3, §4, §5

T1 sequence (Q12809 whole entry): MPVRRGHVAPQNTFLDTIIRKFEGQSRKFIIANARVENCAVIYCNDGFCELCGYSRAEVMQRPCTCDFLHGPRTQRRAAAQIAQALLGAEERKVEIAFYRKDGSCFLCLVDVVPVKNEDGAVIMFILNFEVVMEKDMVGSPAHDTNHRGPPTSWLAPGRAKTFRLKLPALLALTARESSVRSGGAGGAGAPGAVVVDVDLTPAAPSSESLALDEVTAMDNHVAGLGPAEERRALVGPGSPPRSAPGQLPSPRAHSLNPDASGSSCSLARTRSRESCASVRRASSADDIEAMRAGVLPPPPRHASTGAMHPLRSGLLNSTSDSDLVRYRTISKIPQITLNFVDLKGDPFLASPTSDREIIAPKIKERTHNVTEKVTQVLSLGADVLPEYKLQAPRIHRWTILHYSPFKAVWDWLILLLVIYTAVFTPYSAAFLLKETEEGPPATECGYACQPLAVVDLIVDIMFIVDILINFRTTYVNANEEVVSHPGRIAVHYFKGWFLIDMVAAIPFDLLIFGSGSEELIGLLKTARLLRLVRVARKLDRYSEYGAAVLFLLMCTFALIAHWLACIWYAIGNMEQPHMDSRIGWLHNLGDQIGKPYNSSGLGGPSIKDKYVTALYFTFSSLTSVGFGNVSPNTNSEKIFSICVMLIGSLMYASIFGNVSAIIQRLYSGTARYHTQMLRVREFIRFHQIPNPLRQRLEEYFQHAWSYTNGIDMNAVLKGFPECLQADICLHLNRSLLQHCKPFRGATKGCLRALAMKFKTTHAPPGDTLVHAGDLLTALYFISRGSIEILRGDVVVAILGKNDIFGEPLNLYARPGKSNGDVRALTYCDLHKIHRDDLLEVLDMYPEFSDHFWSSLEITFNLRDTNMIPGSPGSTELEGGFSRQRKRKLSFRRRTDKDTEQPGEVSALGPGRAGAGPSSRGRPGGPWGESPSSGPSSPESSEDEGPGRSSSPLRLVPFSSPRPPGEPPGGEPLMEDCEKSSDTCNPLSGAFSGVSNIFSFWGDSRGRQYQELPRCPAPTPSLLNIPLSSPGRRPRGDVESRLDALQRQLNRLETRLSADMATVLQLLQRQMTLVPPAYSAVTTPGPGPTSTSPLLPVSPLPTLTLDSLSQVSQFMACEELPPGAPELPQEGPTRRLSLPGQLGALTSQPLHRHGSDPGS

Take `CCN(C(=O)c1cc(F)ccc1-n1c(C)c(C(=O)C2CCN(C(=O)[C@@H]3CCC4(CC4)N3)CC2)c2ccncc21)C(C)C` (single isomer, unassigned) [Example 49-1]: the IC50 in the data set with MOLM-13 cells was 2290 nM; in the data set with HEL cells, over 10000 nM; on hERG [1], over 200000 nM; in the data set with MV4;11 cells, 2950 nM; at hERG [3], over 40000 nM. Moreover, the “HLM CLint” value in data set [2] (1 mg/mL HLM, NADPH) is over 300 µL/min/mg.

As for `C[C@@H]1CC[C@H](C)N1C(=O)c1cc(F)ccc1-n1cc(C(=O)C2CCN(C(=O)[C@H]3N[C@@H]4CC[C@H]3C4)CC2)c2ccncc21` [Example 32, (1-((1R,3S,4S)-2-Azabicyclo[2.2.1]heptane-3-carbonyl)piperidin-4-yl)(1-(2-((2R,5S)-2,5-dimethylpyrrolidine-1-carbonyl)-4-fluorophenyl)-1H-pyrrolo[2,3-c]pyridin-3-yl)methanone], the IC50 in the data set on MOLM-13 cells (Homo sapiens, MOLM-13, 168 h) is 154 nM; in the data set with HEL cells, over 10000 nM; in the data set on MV4;11 cells (Homo sapiens, MV4-11, 168 h), 144 nM; in the data set with OCI-AML3 cells, 275 nM. Moreover, in data set [4], the Papp A→B came out at 0.4 ×10⁻⁶ cm/s. The same compound returned a microsomal CLint at 1 µM in data set [2] (human, microsomes, pH 7.4, HLM CLint) of 18 µL/min/mg.
